Experimental findings from the supplement of paper PMC10883282 are described below.

The structures appear in SMILES notation. ± gives the standard deviation of the averaged measurements.

The experiment concerns SW982. The experiment can be described thus: relative viability vs DMSO control (72 h) (fraction); higher = more viable cells. In short, it runs like this:
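Sarcoma cell lines in 384-well plates, seeded to reach 80–90% confluence, were given compound after 24 h and kept 72 h at 37 °C, 5% CO2, with 0.1% DMSO vehicle and a 5 µM positive control. Relative viability came from ATPLite as percent growth, averaged over up to triplicate wells. On the rescaled values, 1 equals full and 0 equals none.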

As to `C=CC(=O)Nc1cccc(Oc2nc(Nc3ccc(N4CCN(C)CC4)cc3)nc3ccsc23)c1` [Olmutinib], the relative viability is, setting by setting: (0.00017 µM) 1.01 ± 0.024; (0.00051 µM) 1.01 ± 0.02; (0.00152 µM) 0.98 ± 0.01; (0.00457 µM) 1 ± 0.028; (0.01372 µM) 1.02 ± 0.016; (0.04115 µM) 1.01 ± 0.025. Also, the relative viability came out at 1 ± 0.011 (0.1235 µM); 0.969 ± 0.077 (0.3704 µM); 0.822 ± 0.065 (1.111 µM); 0.663 ± 0.029 (3.333 µM); 0.317 ± 0.033 (10 µM).
Consider `CNC(=O)c1cc(Oc2ccc(NC(=O)Nc3ccc(Cl)c(C(F)(F)F)c3)c(F)c2)ccn1` [Regorafenib], for which the relative viability runs as follows: (0.00017 µM) 1.03 ± 0.017; (0.00051 µM) 1.09 ± 0.057; (0.00152 µM) 1.08 ± 0.043; (0.00457 µM) 1.1 ± 0.052; (0.01372 µM) 1.06 ± 0.032; (0.04115 µM) 1.08 ± 0.057. For the same compound, the relative viability turned out to be 1.09 ± 0.044 (0.1235 µM); 1.09 ± 0.056 (0.3704 µM); 0.997 ± 0.037 (1.111 µM); 0.8827 ± 0.0051 (3.333 µM); 0.795 ± 0.0056 (10 µM).
For the compound `COc1cc2c(cc1O)CCN[C@]21CS[C@@H]2c3c(OC(C)=O)c(C)c4c(c3[C@H](COC1=O)N1[C@@H]2[C@H]2c3c(cc(C)c(OC)c3O)C[C@@H]([C@@H]1O)N2C)OCO4` [Trabectedin], the relative viability runs as follows: (2 pM) 0.929 ± 0.036; (5 pM) 0.86 ± 0.035; (15 pM) 0.765 ± 0.031; (50 pM) 0.639 ± 0.034; (0.00014 µM) 0.385 ± 0.021; (0.00041 µM) 0.266 ± 0.0099. The relative viability came out at 0.194 ± 0.0051 (0.0012 µM); 0.186 ± 0.0075 (0.0037 µM); 0.1406 ± 0.00098 (0.011 µM); 0.987 ± 0.031 (200 fM); 0.9423 ± 0.004 (600 fM).
